Patent publication US9518018B2, “3-alkoxy, thioalkyl and amino-4-amino-6-(substituted)picolinates and their use as herbicides” (Dow AgroSciences LLC, priority 2011, dated 2016)
Like-named read-outs stand apart in the source and are kept apart here.

Tests used:
ZEAMX: corn (Zea mays) = test: Post-Emergent Test I herbicidal activity; type: in vivo
Method in brief: (§1)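 Greenhouse-grown seedlings (peat-based mix, pH 6.0–6.8; ~15 h photoperiod, 23–29 °C day) were sprayed post-emergence at first/second true-leaf stage with compound in acetone/DMSO/aqueous crop-oil–surfactant carrier at 187 L/ha, using a twofold rate series. Injury was scored visually after 14 d (0–100%); GR20/GR50/GR80 derived by probit analysis.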

[1] = test system: ABUTH: velvetleaf (Abutilon theophrasti); test: Post-Emergent Test I herbicidal activity; type: in vivo
Method in brief: as §1

[2] = test system: ORYSA: rice (Oryza sativa); test: Post-Emergent Test I herbicidal activity; type: in vivo; conditions: post-emergence, 336 h, Table 3, 140 g ai/ha, read-out: Visual Growth Reduction (%)-14 Days after Application ORYSA
Method in brief: (§2)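 Foliar spray, 187 L/ha, track sprayer; plants at 1st–2nd true leaf, 7–21 d old. Carrier: acetone/DMSO + aqueous acetone/IPA/crop oil/Triton X-155; high rate plus ½×–1/16× dilutions. Subirrigated; visual % injury vs untreated at 14 d.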

[3] = test system: CYPES: yellow nutsedge (Cyperus esculentus); test: Post-Emergent Test I herbicidal activity; type: in vivo; conditions: post-emergence, 336 h, Table 3, 140 g ai/ha, read-out: Visual Growth Reduction (%)-14 Days after Application CYPES
Method in brief: as §1

[4] = test system: ECHCG: barnyardgrass (Echinochloa crus-galli); test: Post-Emergent Test I herbicidal activity; type: in vivo; conditions: post-emergence, 336 h, Table 3, 140 g ai/ha, read-out: Visual Growth Reduction (%)-14 Days after Application ECHCG
Method in brief: as §2

[5] = test system: EPHHL: wild poinsettia (Euphorbia heterophylla); test: Post-Emergent Test I herbicidal activity; type: in vivo; conditions: post-emergence, 336 h, Table 3, 140 g ai/ha, read-out: Visual Growth Reduction (%)-14 Days after Application EPHHL
Method in brief: as §1

[6] = test system: CHEAL: lambsquarters (Chenopodium album); test: Post-Emergent Test I herbicidal activity; type: in vivo; conditions: for pest or weed control at 140 g/ha: Table 3, 140 g ai/ha
Method in brief: as §1

[7] = test system: POLCO: buckwheat, wild (Polygonum convolvulus); test: Post-Emergent Test I herbicidal activity; type: in vivo
Method in brief: as §1

[8] = test system: TRZAS: wheat, spring (Triticum aestivum); test: Post-Emergent Test I herbicidal activity; type: in vivo
Method in brief: as §2

[9] = Zea mays, post-emergence, 336 h, Table 3, 140 g ai/ha, read-out: Visual Growth Reduction (%)-14 Days after Application ZEAMX
[10] = Abutilon theophrasti, post-emergence, 336 h, Table 3, 140 g ai/ha, read-out: Visual Growth Reduction (%)-14 Days after Application ABUTH
[11] = Chenopodium album, post-emergence, 336 h, read-out: Visual Growth Reduction (%)-14 Days after Application CHEAL
[12] = Table 4, growth reduction of 20% of plant growth, 14 days after application, probit analysis
[13] = Table 4, growth reduction of 50% of plant growth, 14 days after application, probit analysis
[14] = Table 4, growth reduction of 80% of plant growth, 14 days after application, probit analysis

COC(=O)c1nc(-c2ccc(Cl)c(OC)c2F)c(F)c(N)c1OC [Compound 34]
pest or weed control at 140 g/ha (ZEAMX: corn (Zea mays); [9]): 90% | pest or weed control at 140 g/ha [1, 10]: 100% | pest or weed control at 140 g/ha [2]: 10% | pest or weed control at 140 g/ha [3]: 100% | pest or weed control at 140 g/ha [4]: 100% | pest or weed control at 140 g/ha [5]: 100% | pest or weed control at 140 g/ha [6, 11]: 100% | melting point: 133.5 to 135.5 °C

COc1c(C(=O)O)nc(-c2ccc(Cl)cc2)c(F)c1N [Compound 47]
GR20 ZEAMX (ZEAMX: corn (Zea mays); [12]): <8.75 g ai/ha | GR50 ZEAMX (ZEAMX: corn (Zea mays); [13]): 12.6 g ai/ha | GR80 ZEAMX (ZEAMX: corn (Zea mays); [14]): 74.1 g ai/ha | pest or weed control at 140 g/ha (ZEAMX: corn (Zea mays); [9]): 85% | pest or weed control at 8.75 g/ha (ZEAMX: corn (Zea mays); Zea mays, post-emergence, 336 h, Table 4, 8.75 g ai/ha, read-out: Visual Growth Reduction (%)-14 Days after Application ZEAMX): 40% | pest or weed control at 17.5 g/ha (ZEAMX: corn (Zea mays); Zea mays, post-emergence, 336 h, Table 4, 17.5 g ai/ha, read-out: Visual Growth Reduction (%)-14 Days after Application ZEAMX): 55% | pest or weed control at 35 g/ha (ZEAMX: corn (Zea mays); Zea mays, post-emergence, 336 h, Table 4, 35 g ai/ha, read-out: Visual Growth Reduction (%)-14 Days after Application ZEAMX): 75% | pest or weed control at 70 g/ha (ZEAMX: corn (Zea mays); Zea mays, post-emergence, 336 h, Table 4, 70 g ai/ha, read-out: Visual Growth Reduction (%)-14 Days after Application ZEAMX): 80% | pest or weed control at 140 g/ha (ZEAMX: corn (Zea mays); Zea mays, post-emergence, 336 h, Table 4, 140 g ai/ha, read-out: Visual Growth Reduction (%)-14 Days after Application ZEAMX): 85% | pest or weed control at 140 g/ha [1, 10]: 100% | pest or weed control at 8.75 g/ha ([1]; Abutilon theophrasti, post-emergence, 336 h, Table 4, 8.75 g ai/ha, read-out: Visual Growth Reduction (%)-14 Days after Application ABUTH): 90% | pest or weed control at 17.5 g/ha ([1]; Abutilon theophrasti, post-emergence, 336 h, Table 4, 17.5 g ai/ha, read-out: Visual Growth Reduction (%)-14 Days after Application ABUTH): 95% | pest or weed control at 35 g/ha ([1]; Abutilon theophrasti, post-emergence, 336 h, Table 4, 35 g ai/ha, read-out: Visual Growth Reduction (%)-14 Days after Application ABUTH): 95% | pest or weed control at 70 g/ha ([1]; Abutilon theophrasti, post-emergence, 336 h, Table 4, 70 g ai/ha, read-out: Visual Growth Reduction (%)-14 Days after Application ABUTH): 100% | pest or weed control at 140 g/ha ([1]; Abutilon theophrasti, post-emergence, 336 h, Table 4, 140 g ai/ha, read-out: Visual Growth Reduction (%)-14 Days after Application ABUTH): 100% | GR20 ABUTH [1, 12]: <8.75 g ai/ha | GR50 ABUTH [1, 13]: <8.75 g ai/ha | GR80 ABUTH [1, 14]: <8.75 g ai/ha | pest or weed control at 140 g/ha [2]: 45% | Visual Growth Reduction (%)-14 Days after Application POLCO ([7]; Table 4, 8.75 g ai/ha): 100% | Visual Growth Reduction (%)-14 Days after Application POLCO ([7]; Table 4, 17.5 g ai/ha): 100% | Visual Growth Reduction (%)-14 Days after Application POLCO ([7]; Table 4, 35 g ai/ha): 100% | Visual Growth Reduction (%)-14 Days after Application POLCO ([7]; Table 4, 70 g ai/ha): 100% | Visual Growth Reduction (%)-14 Days after Application POLCO ([7]; Table 4, 140 g ai/ha): 100% | GR20 POLCO [7, 12]: <8.75 g ai/ha | GR50 POLCO [7, 13]: <8.75 g ai/ha | GR80 POLCO [7, 14]: <8.75 g ai/ha | pest or weed control at 140 g/ha [3]: 100% | Visual Growth Reduction (%)-14 Days after Application TRZAS ([8]; Table 4, 8.75 g ai/ha): 0% | Visual Growth Reduction (%)-14 Days after Application TRZAS ([8]; Table 4, 17.5 g ai/ha): 15% | Visual Growth Reduction (%)-14 Days after Application TRZAS ([8]; Table 4, 35 g ai/ha): 30% | Visual Growth Reduction (%)-14 Days after Application TRZAS ([8]; Table 4, 70 g ai/ha): 45% | Visual Growth Reduction (%)-14 Days after Application TRZAS ([8]; Table 4, 140 g ai/ha): 50% | GR20 TRZAS [8, 12]: 30.6 g ai/ha | GR50 TRZAS [8, 13]: 98.6 g ai/ha | GR80 TRZAS [8, 14]: >140 g ai/ha | pest or weed control at 140 g/ha [4]: 100% | pest or weed control at 140 g/ha [5]: 100% | pest or weed control at 140 g/ha [6, 11]: 100% | pest or weed control at 8.75 g/ha ([6]; Chenopodium album, post-emergence, 336 h, Table 4, 8.75 g ai/ha, read-out: Visual Growth Reduction (%)-14 Days after Application CHEAL): 90% | pest or weed control at 17.5 g/ha ([6]; Chenopodium album, post-emergence, 336 h, Table 4, 17.5 g ai/ha, read-out: Visual Growth Reduction (%)-14 Days after Application CHEAL): 100% | pest or weed control at 35 g/ha ([6]; Chenopodium album, post-emergence, 336 h, Table 4, 35 g ai/ha, read-out: Visual Growth Reduction (%)-14 Days after Application CHEAL): 100% | pest or weed control at 70 g/ha ([6]; Chenopodium album, post-emergence, 336 h, Table 4, 70 g ai/ha, read-out: Visual Growth Reduction (%)-14 Days after Application CHEAL): 100% | Visual Growth Reduction (%)-14 Days after Application CHEAL ([6]; Table 4, 140 g ai/ha): 100% | GR20 CHEAL [6, 12]: <8.75 g ai/ha | GR50 CHEAL [6, 13]: <8.75 g ai/ha | GR80 CHEAL [6, 14]: <8.75 g ai/ha
